These results are taken from article PMC6881558 (Biochimica et biophysica acta. General subjects, 2019).

One may read the Km as the substrate concentration at which the rate is half of its maximum. As usually defined, the kcat is the number of substrate molecules converted per active site and unit of time at saturation. In general, kcat/Km refers to the second-order rate constant that governs catalysis at low substrate concentration. As a reminder, the IC50 is the concentration that gives 50% inhibition.

Series [1] relates to C[C@H]1O[C@@H](n2cnc3c(N)ncnc32)[C@H](O)[C@@H]1O. As to the kind of experiment: UV spectrophotometric MTN activity and kinetics assay, Bgp. The series is classed as biochemical, Borrelia burgdorferi. Conditions: other: Bgp, substrate kinetics, pH 7, mean ± SEM.
In another series the target is Pfs (Borrelia burgdorferi, UniProt O50162). The series can be described thus: UV spectrophotometric MTN activity and kinetics assay, Pfs. The series is classed as biochemical. The following applies: pH 5, mean ± SEM; for Km: substrate kinetics.
The target of another series is MtnN (Borrelia burgdorferi, UniProt O50860). The series can be described thus: UV spectrophotometric MTN activity and kinetics assay, MtnN. In kind it is biochemical. Conditions: pH 7, mean ± SEM; for Km: substrate kinetics.
Another series addresses Bgp (Borrelia burgdorferi, UniProt Q9F952). As to the kind of experiment: UV spectrophotometric MTN activity and kinetics assay, Bgp. In kind it is biochemical. The following applies: pH 7, mean ± SEM; for Km: substrate kinetics.
A further series has as its system Plasmodium falciparum. The following applies: purine-less cell death in malarial cultures; cited from earlier work.
Series [2] concerns B. burgdorferi strain N40. As to the kind of experiment: BacTiter-Glo bioluminescent cell viability assay. The following applies: Borreliella burgdorferi, N40, 24 h, read-out: IC50 (cell viability). In kind it is cell-based, Borrelia burgdorferi.
The test system of another series is Trichomonas vaginalis. Conditions: cultured parasites; cited from earlier work.
Substrate in series [3]: C[C@H]1O[C@@H](n2cnc3c(N)ncnc32)[C@H](O)[C@@H]1O
The series can be described thus: UV spectrophotometric MTN activity and kinetics assay, MtnN. The series is classed as biochemical, Borrelia burgdorferi. Conditions: other: MtnN, substrate kinetics, pH 7, mean ± SEM.

Substrate in series [4]: C[C@H]1O[C@@H](n2cnc3c(N)ncnc32)[C@H](O)[C@@H]1O
As to the kind of experiment: UV spectrophotometric MTN activity and kinetics assay, Pfs. In kind it is biochemical, Borrelia burgdorferi. Conditions: other: Pfs, substrate kinetics, pH 5, mean ± SEM.

Values joined by “and” are separate entries in the source; they are usually repeats but may differ in a detail not shown here. Equal entries are not always repeated.

Take Bgp (Borreliella burgdorferi): in [1], the Km was determined as 1.79 ± 0.52 µM, the kcat came to 1.53 ± 0.467 s⁻¹ and the kcat/Km was 850000 ± 267000 M⁻¹ s⁻¹.

With 5’-methylthioadenosine [MTA], the kcat turned out to be 1.78 ± 0.05 s⁻¹ on Pfs, 1.55 ± 0.083 s⁻¹ at MtnN and 1.85 ± 0.333 s⁻¹ at Bgp. Further, the Km at Pfs is 0.61 ± 0.16 µM; on MtnN, 9.1 µM and 9.09 µM; at Bgp, 0.49 ± 0.01 µM.

For the molecule `Nc1ncnc2c(C3N[C@H](CO)[C@@H](O)[C@H]3O)c[nH]c12` (some centres unmarked) [Immucillin-A (ImmA), Immucillin-A], the IC50 in the series on Plasmodium falciparum is 35 nM.

For `Nc1ncnc2c1ncn2[C@@H]1O[C@H](CSCC[C@H](N)C(=O)O)[C@@H](O)[C@H]1O` [SAH, S-adenosylhomocysteine], the kcat was determined as 1.57 ± 0.083 s⁻¹ on Pfs, 0.55 ± 0.017 s⁻¹ at MtnN and 1.75 ± 0.2 s⁻¹ at Bgp. The Km at Pfs is 0.75 ± 0.16 µM; on MtnN, 2.04 ± 0.44 µM; on Bgp it was 1.96 ± 0.67 µM.

For the molecule `CC1(C)S[C@@H]2[C@H](NC(=O)[C@H](N)c3ccccc3)C(=O)N2[C@H]1C(=O)O` [ampicillin], the half-maximal inhibitory concentration (IC50) in series [2] is 1.07 µg/mL and 3.01 µM.

Turning to `CCCCSCC1CN(Cc2c[nH]c3c(N)ncnc23)CC1O` (centres unmarked) [BuT-DADMe-ImmA, 1-[(9-deazaadenin-9-yl)methyl]-3-hydroxy-4-(butylthiomethyl)pyrrolidine], the 50% inhibitory concentration (IC50) in series [2] is 0.38 µg/mL and ~100 nM.

Consider `CSCC1CN(Cc2c[nH]c3c(N)ncnc23)CC1O` (centres unmarked) [MT-DADMe-ImmA, 1-[(9-deazaadenin-9-yl)methyl]-3-hydroxy-4-(methylthiomethyl) pyrrolidine], for which the half-inhibitory concentration (IC50) in series [2] was 0.31 µg/mL and ~100 nM.

Regarding `Nc1nc(F)nc2c1ncn2[C@H]1C[C@H](O)[C@@H](CO)O1` [2-fluoro-2’-deoxyadenosine], in the series on Trichomonas vaginalis, the IC50 was 106 nM.

B1: MtnN (Borreliella burgdorferi B31) (protein)
chain: NESKINTPNENSQSNILIISATKAEIEEINKIIQNKKYISIEEHRRKKKIAIGKLMDHNIITIATGVGKINTALWTSYIISKYKISHIINAGVASGIYSDKNKFIKIGDVVISTETTSYDFDLHRFGYEIGHVPEHPKKFKANTALIRKTSKIKINNITSYMGLIITGDQFIDHQTFQEIPEEFENAIAIDMESAAMAQVAYGFKIPFIIIRGISDIVNNENNYDDYKKFLKKASSSSAKIVENLIKLM
For the molecule B1, in [3], the Michaelis-Menten constant (Km) is 10.5 µM and 10.46 ± 0.75 µM; the kcat was determined as 0.733 ± 0.0167 s⁻¹; the kcat/Km is 66700 ± 5000 M⁻¹ s⁻¹.

B2: Pfs (Borreliella burgdorferi B31) (protein)
chain: MILIISAMQEESEEINKILDNKEEIVLNDYLENKKIYKGKILGKDVISLTTGIGKVNAATWSSQIISKYKITHIINSGSSGGIKENSNLKILDIIVSSETAYYDFDLTKFGHKIGQVPNLPQKFKADEELLKKVANIVDNKLLNIDIHIGLILTGDQFVDNEKNLETIKKNFKDALAVDMEGAAIAQVAHIFKIPFIIIRSISDLPNNKDNHIDFNKFLKTSSINSSKMTKELIRLI
In the case of B2, in series [4], the Km was 1.37 ± 0.37 µM, the kcat was found to be 2.7 ± 0.15 s⁻¹ and the kcat/Km was 1.97e+06 ± 400000 M⁻¹ s⁻¹.
